Measurements: patent US20100144858A1, “Treatment of movement disorders with a metabotropic glutamate 4 receptor positive allosteric modulator” (priority 2003, published 2010)
Entries after “also recorded” stand apart in the source; their conditions may differ. Read-outs that look alike come from different tables or passages of the source. Each block holds one molecule with its values, some of them ahead of it.

Assays:
[1] = biological target: T1, mGluR2 (Homo sapiens, UniProt Q14416); assay: FLIPR Ca2+ flux assay, mGluR2 antagonism; assay type: cell-based; settings: 10 μM
T1 construct: expressed in transfected cells; host or cells: CHO or HEK cells, co-expressing Gα16

[2] = biological target: T2, mGluR1b (Homo sapiens, UniProt Q13255); assay: FLIPR Ca2+ flux assay, mGluR1b antagonism; assay type: cell-based; settings: 10 μM
T2 construct: expressed in transfected cells; host or cells: CHO or HEK cells

[3] = system: mGluR4; assay: FLIPR Ca2+ flux assay in mGluR4 CHO cells; settings: in the presence of 10 μM PHCCC
Method: (§1) Cells expressing mGluR2, mGluR4, mGluR7 and mGluR8 were coexpressed with Gα16, Gαqi5, Gα15 and Gα15, respectively. Cells were evaluated using a fluorometric imaging plate reader (FLIPR, Molecular Devices, Sunnyvale, Calif.), to measure their ability to mobilize Ca^2+ in response to appropriate agonists (i.e., glutamate and L-AP4).
(§2) CHO or HEK cells expressing mGluR receptors (mGluR CHO or HEK cells) were plated (50,000-70,000 cells/well) in clear-bottomed, poly-D-lysine-coated plates (Becton-Dickinson) in glutamate/glutamine-free medium. The plated cells were grown overnight at 37° C. in the presence of 6% CO2. The following day, the cells were washed with 3×100 μl assay buffer (Hanks Balanced Salt Solution containing 20 mM HEPES, 2.5 mM probenecid, and 0.1% bovine serum albumin) using a Skatron Embla cell washer. The cells were incubated with 1 μM Fluo-4AM (Molecular Probes, Eugene, Oreg.) for 1 h at 37° C. and 6% CO2. The extracellular dye was removed by washing as described above. […] Ca^2+ flux was measured using a FLIPR.

[4] = biological target: T3, mGluR8 (Homo sapiens, UniProt O00222); assay: FLIPR Ca2+ flux assay, mGluR8 antagonism; assay type: cell-based; settings: 10 μM
T3 construct: expressed in transfected cells; host or cells: CHO or HEK cells, co-expressing Gα15

[5] = system: lateral perforant path-dentate gyrus (LPP-DG) synapse (mGluR8); assay: Hippocampal field recordings (fEPSPs), LPP-DG synapse; set-up: species or system rat; settings: submaximal L-AP4; fEPSP slope
[6] = biological target: T4, mGluR5a (Homo sapiens, UniProt P41594); assay: FLIPR Ca2+ flux assay, mGluR5a antagonism; assay type: cell-based; settings: 10 μM
T4 construct: expressed in transfected cells; host or cells: CHO or HEK cells

[7] = system: any other mGluR subtype; assay: FLIPR Ca2+ flux assay, other mGluR subtypes (activation or potentiation); assay type: cell-based; settings: 10 μM
[8] = system: Schaffer collateral-CA1 (SC-CA1) synapse (mGluR7); assay: Hippocampal field recordings (fEPSPs), SC-CA1 synapse; set-up: species or system rat; settings: submaximal L-AP4; fEPSP slope
[9] = system: reserpine-induced akinesia; assay: Reserpine-induced akinesia model of Parkinson's disease; assay type: in vivo; settings: rat, 75 nmol icv, reserpine 5 mg/kg sc, beam breaks/30 min
Method: Behavior: Third ventricle cannulated male Sprague-Dawley rats (250-350) were purchased from Taconic Farms (Germantown, N.Y.) with guide cannula implanted such that subsequent placement of an injection cannula allowed for infusion into the third ventricle. These rats were used for intracerebral ventricular (icy) injection of test compounds within one week of arrival to the testing facility. All experiments were carried out during the light cycle (6.00-18.00).
Rats were injected with reserpine (5 mg/kg sc, dissolved in 1% acetic acid) and kept in their home cages for 1.5-2 hr post-injection. Activity was measured by placing rats in photocell activity cages (Hamilton-Kinder, Inc., Poway, Calif.) equipped with 16×16 infrared beams. […] Five min following the injection of test compound or vehicle, motor activity was recorded for an additional 30 min for each rat. Motor activity (cumulative beam breaks/30-min period) was recorded both pre- and post-drug treatment for each rat. […] Post hoc comparisons were performed using the Bonferroni test. Statistical significance was achieved when p<0.05. Data are expressed as mean +/− one SEM.

[10] = system: striato-pallidal synapse; assay: Brain slice whole-cell patch-clamp, evoked IPSCs at striato-pallidal synapse; set-up: species or system rat; settings: for effect on striato-pallidal transmission, compound alone: L-AP4 1 μM, PHCCC 30 μM, rat brain slice
Method: Animals: All studies were performed in an AAALAC accredited facility in accordance with all applicable guidelines regarding the care and use of animals. Animals were group housed with access to food and water ad libitum. Slice Preparation: All experiments were performed on slices from 26 to 30-d-old Sprague Dawley rats (Taconic, Germantown, N.Y.). Animals were killed by decapitation and brains were rapidly removed and submerged in an ice-cold solution containing (in mM): choline chloride 126, KCl 2.5, NaH2PO4 1.2, MgCl2 1.3, MgSO4 8, glucose 10, and NaHCO3 26, equilibrated with 95% O2/5% CO2 (11). The brain was glued to the chuck of a vibrating blade microtome (Leics Microsystems, Nussloch GmbH) and parasagittal slices (300 μm thick) were obtained. Slices were immediately transferred to a 500 ml holding chamber containing artificial cerebrospinal fluid (in mM): NaCl 124, KCl 2.5, MgSO4 1.3, NaH2PO4 1.0, CaCl2 2, glucose 20, and NaHCO3 26, equilibrated with 95% O2/5% CO2 that was maintained at 32° C. After 20-min at 32° C., the holding chamber was allowed to gradually decrease to room temperature. In all experiments 5 μM glutathione, 500 μM pyruvate, and 250 μM kynurenic acid were included in the choline chloride buffer and in the holding chamber ACSF. Electrophysiology: Whole-cell patch-clamp recordings were obtained (Marino et al., (2001) J. Neurosci. 21: 7001-7012. During recording, slices were maintained fully submerged on the stage of a 1 ml brain slice chamber at 32° C. and perfused continuously with equilibrated ACSF (2-3 ml/min). Neurons were visualized using a differential interference contrast microscope and an infrared video system. Patch electrodes were pulled from borosilicate glass on a two-stage puller and had resistances in the range of 3-7 MΩ when filled with the following internal solution: (in mM): potassium gluconate 125, NaCl 4, NaH2PO4 6, CaCl2 1, MgSO4 2, BAPTA-tetrapotassium salt 10, HEPES 10, Mg-ATP 2, Na2-GTP 0.3, pH=7.4. All recordings were done using HEKA EPC9 patch clamp amplifiers (HEKA Elektronik, Lambrecht/Pfalz, Germany). […]

[11] = biological target: T5, rat mGluR4 (Rattus norvegicus, UniProt P31423); assay: FLIPR Ca2+ flux assay, rat mGluR4; assay type: cell-based; settings: n=3, read-out: EC50 for L-AP4 activation of rat mGluR4
T5 construct: expressed in transfected cells; host or cells: CHO or HEK cells, co-expressing Gαqi5

[12] = biological target: T6, human mGluR4 (Homo sapiens, UniProt Q14833); assay: FLIPR Ca2+ flux assay, human mGluR4; assay type: cell-based; set-up: expressed in transfected cells; host or cells: CHO or HEK cells, co-expressing Gαqi5; settings: n=3, read-out: EC50 for L-AP4 activation of human mGluR4
Target sequence in this assay (Q14833 33-912): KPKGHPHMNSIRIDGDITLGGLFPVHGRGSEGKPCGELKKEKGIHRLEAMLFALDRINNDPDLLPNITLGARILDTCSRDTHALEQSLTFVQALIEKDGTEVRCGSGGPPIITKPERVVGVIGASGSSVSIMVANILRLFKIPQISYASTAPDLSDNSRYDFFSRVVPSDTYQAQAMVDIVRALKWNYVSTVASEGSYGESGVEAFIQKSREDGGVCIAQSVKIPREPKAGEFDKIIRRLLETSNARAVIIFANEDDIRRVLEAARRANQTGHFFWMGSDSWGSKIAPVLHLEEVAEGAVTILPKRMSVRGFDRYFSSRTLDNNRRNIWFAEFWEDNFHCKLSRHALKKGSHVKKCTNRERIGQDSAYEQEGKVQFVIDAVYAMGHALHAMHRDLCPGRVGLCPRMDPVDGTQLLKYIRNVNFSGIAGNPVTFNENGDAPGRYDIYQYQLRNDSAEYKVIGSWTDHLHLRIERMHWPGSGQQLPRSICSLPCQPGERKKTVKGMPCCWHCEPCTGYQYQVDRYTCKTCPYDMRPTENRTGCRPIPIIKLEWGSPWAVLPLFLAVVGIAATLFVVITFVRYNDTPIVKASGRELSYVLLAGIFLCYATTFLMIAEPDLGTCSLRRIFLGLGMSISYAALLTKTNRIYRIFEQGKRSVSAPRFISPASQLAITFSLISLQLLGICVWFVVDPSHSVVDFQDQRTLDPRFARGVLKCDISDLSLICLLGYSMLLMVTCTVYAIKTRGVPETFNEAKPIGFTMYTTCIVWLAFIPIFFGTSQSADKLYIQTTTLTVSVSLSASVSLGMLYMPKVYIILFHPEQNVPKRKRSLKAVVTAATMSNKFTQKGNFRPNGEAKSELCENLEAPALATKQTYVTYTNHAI
Method: as §1, §2

[13] = biological target: T6, human mGluR4; assay: FLIPR Ca2+ flux assay in mGluR4 CHO cells
Method: as §1, §2

T5 sequence (P31423 33-912): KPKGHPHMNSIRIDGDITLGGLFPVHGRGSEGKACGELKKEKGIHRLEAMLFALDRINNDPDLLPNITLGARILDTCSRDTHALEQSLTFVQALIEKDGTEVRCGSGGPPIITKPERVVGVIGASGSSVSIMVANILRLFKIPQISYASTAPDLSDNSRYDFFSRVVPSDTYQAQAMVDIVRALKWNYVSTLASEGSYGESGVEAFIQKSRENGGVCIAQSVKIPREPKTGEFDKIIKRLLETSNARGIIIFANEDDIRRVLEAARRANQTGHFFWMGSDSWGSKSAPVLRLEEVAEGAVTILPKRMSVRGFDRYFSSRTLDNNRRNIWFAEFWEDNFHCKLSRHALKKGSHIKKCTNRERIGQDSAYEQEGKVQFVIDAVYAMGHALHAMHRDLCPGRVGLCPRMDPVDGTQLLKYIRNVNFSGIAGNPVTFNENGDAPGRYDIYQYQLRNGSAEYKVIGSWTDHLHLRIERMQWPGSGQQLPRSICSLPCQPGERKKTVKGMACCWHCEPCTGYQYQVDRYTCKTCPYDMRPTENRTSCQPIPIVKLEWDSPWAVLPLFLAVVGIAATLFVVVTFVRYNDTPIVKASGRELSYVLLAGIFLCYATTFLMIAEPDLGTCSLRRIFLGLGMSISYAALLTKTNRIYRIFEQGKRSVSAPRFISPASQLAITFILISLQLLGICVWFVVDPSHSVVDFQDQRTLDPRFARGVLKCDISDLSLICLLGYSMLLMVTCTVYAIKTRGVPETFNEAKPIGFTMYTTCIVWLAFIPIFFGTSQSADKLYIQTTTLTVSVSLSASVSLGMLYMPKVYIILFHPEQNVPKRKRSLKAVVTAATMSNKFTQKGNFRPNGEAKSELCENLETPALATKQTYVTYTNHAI
T4 sequence (P41594 21-1180 isoform P41594-2 limits assumed): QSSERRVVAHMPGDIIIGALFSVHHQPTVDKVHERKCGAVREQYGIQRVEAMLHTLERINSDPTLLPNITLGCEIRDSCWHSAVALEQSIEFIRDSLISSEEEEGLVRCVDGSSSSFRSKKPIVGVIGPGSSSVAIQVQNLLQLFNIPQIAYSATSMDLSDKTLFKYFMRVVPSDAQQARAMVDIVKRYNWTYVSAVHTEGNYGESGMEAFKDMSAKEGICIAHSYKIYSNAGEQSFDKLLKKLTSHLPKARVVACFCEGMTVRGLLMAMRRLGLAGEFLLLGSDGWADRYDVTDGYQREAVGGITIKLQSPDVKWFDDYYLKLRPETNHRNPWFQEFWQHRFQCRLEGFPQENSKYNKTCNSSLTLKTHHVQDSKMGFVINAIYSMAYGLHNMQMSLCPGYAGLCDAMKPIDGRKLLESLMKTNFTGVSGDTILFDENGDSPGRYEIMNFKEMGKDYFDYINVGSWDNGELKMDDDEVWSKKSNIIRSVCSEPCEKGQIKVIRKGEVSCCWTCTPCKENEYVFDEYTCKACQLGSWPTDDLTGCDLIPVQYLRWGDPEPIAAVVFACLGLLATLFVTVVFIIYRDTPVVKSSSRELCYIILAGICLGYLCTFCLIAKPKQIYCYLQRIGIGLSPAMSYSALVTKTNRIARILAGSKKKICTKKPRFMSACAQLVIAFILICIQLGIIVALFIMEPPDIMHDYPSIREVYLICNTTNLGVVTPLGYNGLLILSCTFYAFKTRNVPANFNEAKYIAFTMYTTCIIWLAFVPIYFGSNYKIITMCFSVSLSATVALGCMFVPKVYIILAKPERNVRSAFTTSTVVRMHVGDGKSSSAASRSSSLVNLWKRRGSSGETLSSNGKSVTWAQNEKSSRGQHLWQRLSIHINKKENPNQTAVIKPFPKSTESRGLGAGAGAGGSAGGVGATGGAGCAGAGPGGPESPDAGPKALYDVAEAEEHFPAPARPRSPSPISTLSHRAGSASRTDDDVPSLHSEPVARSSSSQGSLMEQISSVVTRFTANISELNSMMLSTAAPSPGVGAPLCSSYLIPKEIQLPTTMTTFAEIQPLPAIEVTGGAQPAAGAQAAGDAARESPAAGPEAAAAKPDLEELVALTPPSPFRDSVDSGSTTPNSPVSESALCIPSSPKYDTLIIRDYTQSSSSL
T3 sequence (O00222 34-908, species assumed): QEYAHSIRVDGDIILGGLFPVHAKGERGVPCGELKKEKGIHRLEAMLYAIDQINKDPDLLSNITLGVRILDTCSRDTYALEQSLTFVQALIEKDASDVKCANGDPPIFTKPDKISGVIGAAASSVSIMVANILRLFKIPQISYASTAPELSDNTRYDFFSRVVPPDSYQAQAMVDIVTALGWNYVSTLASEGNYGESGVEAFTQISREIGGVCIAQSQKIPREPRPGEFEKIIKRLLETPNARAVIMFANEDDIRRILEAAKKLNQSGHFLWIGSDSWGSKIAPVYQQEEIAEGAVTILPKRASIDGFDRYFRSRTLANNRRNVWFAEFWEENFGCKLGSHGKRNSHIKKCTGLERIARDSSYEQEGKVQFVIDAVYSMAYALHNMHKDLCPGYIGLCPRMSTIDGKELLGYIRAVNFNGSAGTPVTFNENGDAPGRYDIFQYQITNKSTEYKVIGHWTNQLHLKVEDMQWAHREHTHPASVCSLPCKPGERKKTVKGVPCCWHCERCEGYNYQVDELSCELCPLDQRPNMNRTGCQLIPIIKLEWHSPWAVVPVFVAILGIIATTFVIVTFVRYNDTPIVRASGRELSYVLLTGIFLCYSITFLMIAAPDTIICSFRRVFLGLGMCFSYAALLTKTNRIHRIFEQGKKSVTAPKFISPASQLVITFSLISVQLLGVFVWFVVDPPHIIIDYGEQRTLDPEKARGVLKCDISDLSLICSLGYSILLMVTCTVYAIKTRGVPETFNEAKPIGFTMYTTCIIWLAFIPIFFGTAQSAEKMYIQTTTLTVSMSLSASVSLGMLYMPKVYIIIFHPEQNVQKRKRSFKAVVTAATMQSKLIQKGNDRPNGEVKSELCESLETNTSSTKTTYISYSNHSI
T1 sequence (Q14416 19-872): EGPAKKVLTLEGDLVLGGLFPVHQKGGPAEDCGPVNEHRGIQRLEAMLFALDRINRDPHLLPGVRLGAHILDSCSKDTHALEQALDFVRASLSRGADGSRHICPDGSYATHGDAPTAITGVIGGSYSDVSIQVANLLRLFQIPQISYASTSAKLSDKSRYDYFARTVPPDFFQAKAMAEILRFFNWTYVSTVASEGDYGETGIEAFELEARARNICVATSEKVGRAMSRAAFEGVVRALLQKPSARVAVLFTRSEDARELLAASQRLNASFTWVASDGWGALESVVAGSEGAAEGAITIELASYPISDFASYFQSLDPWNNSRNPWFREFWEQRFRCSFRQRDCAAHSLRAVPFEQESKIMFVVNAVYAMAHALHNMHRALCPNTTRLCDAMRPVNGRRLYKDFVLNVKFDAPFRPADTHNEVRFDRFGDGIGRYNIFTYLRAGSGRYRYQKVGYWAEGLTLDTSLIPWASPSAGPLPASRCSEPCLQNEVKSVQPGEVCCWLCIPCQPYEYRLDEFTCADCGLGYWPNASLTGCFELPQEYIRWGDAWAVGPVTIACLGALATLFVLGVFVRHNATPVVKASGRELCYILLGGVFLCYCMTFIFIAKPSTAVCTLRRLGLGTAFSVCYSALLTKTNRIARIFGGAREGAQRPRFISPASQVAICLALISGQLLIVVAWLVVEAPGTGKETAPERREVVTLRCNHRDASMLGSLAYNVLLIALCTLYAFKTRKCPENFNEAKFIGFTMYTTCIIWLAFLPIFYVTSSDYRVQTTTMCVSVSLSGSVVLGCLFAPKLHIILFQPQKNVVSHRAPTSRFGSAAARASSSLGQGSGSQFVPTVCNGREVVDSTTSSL

Molecule: N-phenyl-7-(hydroxylimino)cyclopropa[b]chromen-1a-carboxamide [PHCCC]
block of response of mGluR2 to glutamate [1]: partially blocked
block of response of mGluR1b to glutamate [2]: partially blocked
increase of the maximal effect of L-AP4 [3]: approximately two-fold
block of response of mGluR8 to glutamate [4]: partially blocked
effect on L-AP4-induced inhibition of transmission at LPP-DG synapse [5]: no significant effect
block of response of mGluR5a to glutamate [6]: partially blocked
activation or potentiation of responses of other mGluR subtypes [7]: does not potentiate or activate any other mGluR subtype; also recorded: did not activate or potentiate
effect on L-AP4-induced inhibition of transmission at SC-CA1 synapse [8]: no significant effect
locomotor activity (reversal of reserpine-induced akinesia) [9]: overcome inhibition of movement; also recorded: significant increase in locomotor activity
effect on striato-pallidal transmission, co-application with L-AP4 ([10]; 30 μM PHCCC and 1 μM L-AP4, p<0.01, n=4): potentiate the effect of the mGluR4 agonist L-AP4 in inhibiting transmission; also recorded: marked inhibition
effect on striato-pallidal transmission, compound alone [10]: no effect

Molecule: NC(CCP(=O)(O)O)C(=O)O [L-AP4]
EC50 ([11]; with 10 μM PHCCC): 67.6 ± 5.2 nM
EC50 ([11]; without PHCCC): 832 ± 100 nM
EC50 ([12]; in the absence of PHCCC): 484 ± 45 nM
EC50 ([12]; with 10 μM PHCCC): 71.4 ± 2.9 nM
effect on striato-pallidal transmission, compound alone [10]: small but significant inhibition

IC50 ([13]; read-out: mGluR4 antagonist IC50, at higher concentrations): > 100000 nM
Molecule: 7-(hydroxylimino)cyclopropa[b]chromen-1a-carboxamide ethyl ester [CPCCOEt]
effect on the response of mGluR4 to agonists (potentiation) ([13]; concentrations up to 30 μM): no mGluR4 potentiator activity; also recorded: did not have any effect
locomotor activity (reversal of reserpine-induced akinesia) [9]: no effect
